Test [1] has as its system BaF3 V617F cells; UKE-1. The test is described as follows: Proliferation Assay (Cell Titer-Glo; Example 7). It counts as cell-based. The note with it: proliferation 72 hours, inhibit JAK2 activity, cell line (BaF3 V617F or UKE-1) not stated. The method, boiled down:
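BaF3 V617F cells (RPMI, 10% FBS) and UKE-1 cells (Iscove's DMEM, 10% FBS, 10% equine serum, 1 uM hydrocortisone) were exposed to 3-fold serially diluted compound in duplicate for 72 hours at 37 °C. Viable cell number quantified by Cell Titer-Glo luminescence; IC50 reported.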
Background: In ATP-based viability assays light output follows the ATP content of the culture.

Test [2] concerns Ramos B-Cell Line Stimulated with IL-4. Nature of the test: Assay for Ramos B-Cell Line Stimulated with IL-4 (CD23 upregulation, FACS; Example 2). The note with it: human Ramos B cells, IL-4 50 units/mL for 20-24 hours, anti-CD23-PE. It counts as cell-based. The text has this: One means of assaying for such inhibition is detection of the effect of the 2,4-pyrimidinediamine compounds on the upregulation of downstream gene products. In the Ramos/IL4 assay, B-cells are stimulated with the cytokine Interleukin-4 (IL-4) leading to the activation of the JAK/Stat pathway through phosphorylation of the JAK family kinases, JAK1 and JAK3, which in turn phosphorylate and activate the transcription factor Stat-6. […] To study the effect of inhibitors (e.g., the 2,4-substituted pyrimindinediamine compounds described herein) on the JAK1 and JAK3 kinases, human Ramos B cells are stimulated with human IL-4. 20 to 24 hours post stimulation, cells are stained for upregulation of CD23 and analyzed using flow cytometry (FACS). […] An exemplary assay of this type is described in greater detail in Example 2.
B-cells stimulated with cytokine Interleukin-4 (IL-4) activate the JAK/Stat pathway through phosphorylation of the JAK family kinases, JAK-1 and JAK-3, which in turn phosphorylate and activate the transcription factor Stat-6. […] To study the effect of inhibitors on the JAK family kinases, human Ramos B cells are stimulated with human IL-4.
The Ramos B-cell line was acquired from ATCC (ATCC Catalog No. CRL-1596). The cells were cultured in RPMI 1640 (Cellgro, MediaTech, Inc., Herndon, Va., Cat No. 10-040-CM) with 10% fetal bovine serum (FBS), heat inactivated (JRH Biosciences, Inc, Lenexa, Kans., Cat No. 12106-500M) according to ATCC propagation protocol. Cells were maintained at a density of 3.5×10^5. The day before the experiment, Ramos B-cells were diluted to 3.5×10^5 cells/mL to ensure that they were in a logarithmic growth phase.
Cells were spun down and suspended in RPMI with 5% serum. 5×10^4 cells were used per point in a 96-well tissue culture plate. Cells were pre-incubated with compound or DMSO (Sigma-Aldrich, St. Louis, Mo., Cat No. D2650) vehicle control for 1 hour in a 37° C. incubator.
Cells were then stimulated with IL-4 (Peprotech Inc., Rocky Hill, N.J., Cat No. 200-04) for a final concentration of 50 units/mL for 20-24 hours. Cells were then spun down and stained with anti-CD23-PE (BD Pharmingen, San Diego, Calif., Cat No. 555711) and analyzed by FACS. Detection was performed using a BD LSR I System Flow Cytometer, purchased from Becton Dickinson Biosciences of San Jose, Calif.

A word on the IC50: it is the point on the concentration scale where inhibition reaches its midpoint. Read a high IC50 as weaker potency in that assay. With `COc1cc(Nc2ncc(C)c(Nc3cccc(CNS(=O)(=O)C4CC4)c3)n2)cc(OC)c1OC` [II-13, N4-(3-cyclopropylsulfonylaminomethyl)phenyl-5-methyl-N2-(3,4,5-trimethoxy)phenyl-2,4-pyrimidinediamine], the IC50 in test [1] stood at 359 nM; in test [2], 126 nM.
Regarding `COc1c(C)cc(Nc2ncc(Cl)c(Nc3ccc(CNS(=O)(=O)C4CC4)cc3)n2)cc1C` [II-43, 5-chloro-N4-(4-cyclopropylsulfonylaminomethyl)phenyl-N2-(3,5-dimethyl-4-methoxy)phenyl-2,4-pyrimidinediamine], the IC50 stood at 23.9 nM in test [1] and 38.6 nM in test [2].
As for `COc1c(C)cc(Nc2ncc(F)c(Nc3ccc(CNS(=O)(=O)C4CC4)cc3)n2)cc1C` [II-41, N4-(4-cyclopropylsulfonylaminomethyl)phenyl-N2-(3,5-dimethyl-4-methoxy)phenyl-5-fluoro-2,4-pyrimidinediamine], the IC50 in test [1] turned out to be 123 nM; in test [2], 37.8 nM.
For the compound `Cc1cnc(Nc2cccc(C#N)c2)nc1Nc1cccc(CNS(=O)(=O)C2CC2)c1` [II-26, N2-(3-cyano)phenyl-N4-(3-cyclopropylsulfonylaminomethyl)phenyl-5-methyl-2,4-pyrimidinediamine], the IC50 is 2240 nM in test [1] and 146 nM in test [2].
As for `Cc1cnc(Nc2cccc(C#N)c2)nc1Nc1ccc(CN(C)S(=O)(=O)C2CC2)cc1` [II-28, N2-(3-cyano)phenyl-N4-[4-(N-cyclopropylsulfonyl-N-methyl)aminomethyl]phenyl-5-methyl-2,4-pyrimidinediamine], the IC50 in test [1] amounted to 10900 nM; in test [2], 233 nM.
In the case of `Cc1cc(C)cc(Nc2ncc(C)c(Nc3cccc(CN(C)S(=O)(=O)C4CC4)c3)n2)c1` [II-40, N4-[3-(N-cyclopropylsulfonyl-N-methyl)aminomethyl]phenyl-N2-(3,5-dimethyl)phenyl-5-methyl-2,4-pyrimidinediamine], the figures for the IC50 in test [1] and in test [2] were 2200 nM and 704 nM, respectively.
In the case of `Cc1cnc(Nc2cccc(C(N)=O)c2)nc1Nc1ccc(CNS(=O)(=O)C2CC2)cc1` [II-32, N2-(3-aminocarbonyl)phenyl-N4-(4-cyclopropylsulfonylaminomethyl)phenyl-5-methyl-2,4-pyrimidinediamine], the values for the IC50 in test [1] and in test [2] were 1530 nM and 52.3 nM, respectively.
Take `N#Cc1ccc(Nc2ncc(F)c(Nc3ccc(CNS(=O)(=O)C4CC4)cc3)n2)cc1Cl` [II-5, N2-(3-chloro-4-cyano)phenyl-N4-(4-cyclopropylsulfonylaminomethyl)phenyl-5-fluoro-2,4-pyrimidinediamine]: the values for the IC50 in test [1] and in test [2] were 6060 nM and 364 nM, respectively.
With `CCN1CCN(c2ccc(Nc3ncc(C)c(Nc4ccc(CNS(=O)(=O)C5CC5)cc4)n3)cc2C)CC1` [II-8, N4-(4-cyclopropylsulfonylaminomethyl)phenyl-N2-[4-(4-ethylpiperazino)-3-methyl]phenyl-5-methyl-2,4-pyrimidinediamine], the IC50 in test [1] stood at 200 nM; in test [2], 36.2 nM.
As for `COc1cc(Nc2ncc(C)c(Nc3ccc(CNS(=O)(=O)C4CC4)cc3)n2)cc(OC)c1OC` [II-9, N4-(4-cyclopropylsulfonylaminomethyl)phenyl-5-methyl-N2-(3,4,5-trimethoxy)phenyl-2,4-pyrimidinediamine], the results for the IC50 in test [1] and in test [2] were 408 nM and 82.6 nM, respectively.
For the compound `Cc1cnc(Nc2ccc(C(N)=O)cc2)nc1Nc1cccc(CN(C)S(=O)(=O)C2CC2)c1` [II-21, N2-(4-aminocarbonyl)phenyl-N4-[3-(N-cyclopropylsulfonyl-N-methyl)aminomethyl]phenyl-5-methyl-2,4-pyrimidinediamine], the IC50 in test [1] turned out to be 479 nM; in test [2], 110 nM.
With `Cc1cc(C)cc(Nc2ncc(F)c(Nc3ccc(CNS(=O)(=O)C4CC4)cc3)n2)c1` [II-4, N4-(4-cyclopropylsulfonylaminomethyl)phenyl-N2-(3,5-dimethyl)phenyl-5-fluoro-2,4-pyrimidinediamine], the IC50 in test [1] was 3400 nM; in test [2], 88 nM.
As to `Cc1nc2cc(Nc3ncc(C)c(Nc4ccc(CNS(=O)(=O)C5CC5)cc4)n3)ccc2[nH]1` [III-3, N4-(4-cyclopropylsulfonylaminomethyl)phenyl-5-methyl-N2-(2-methylbenzoimidazol-5-yl)-2,4-pyrimidinediamine], the values for the IC50 in test [1] and in test [2] were 5800 nM and 49.4 nM, respectively.
For `O=C(NCCN1CCOCC1)n1ccc2ccc(Nc3ncc(F)c(Nc4ccc(CNS(=O)(=O)C5CC5)cc4)n3)cc21` [III-2, N4-[4-(Cyclopropylsulfonylaminomethyl)phenyl]-5-fluoro-N2-[1-(2-(N-morpholino)ethylaminocarbonyl)indol-6-yl]-2,4-pyrimidinediamine], the IC50 in test [1] came to 6180 nM; in test [2], 911 nM.
As for `COc1c(C)cc(Nc2ncc(C)c(Nc3cccc(CNS(=O)(=O)C4CC4)c3)n2)cc1C` [II-44, N4-(3-cyclopropylsulfonylaminomethyl)phenyl-N2-(3,5-dimethyl-4-methoxy)phenyl-5-methyl-2,4-pyrimidinediamine], the results for the IC50 in test [1] and in test [2] were 488 nM and 78.3 nM, respectively.
As to `Cc1cnc(Nc2cccc(C#N)c2)nc1Nc1ccc(CNS(=O)(=O)C2CC2)cc1` [II-34, N2-(3-cyano)phenyl-N4-(4-cyclopropylsulfonylaminomethyl)phenyl-5-methyl-2,4-pyrimidinediamine], the IC50 in test [1] was found to be 460 nM; in test [2] it was 45.5 nM.
For the compound `COc1ccc(Nc2ncc(C)c(Nc3ccc(CNS(=O)(=O)C4CC4)cc3)n2)cc1Cl` [II-10, N2-(3-chloro-4-methoxy)phenyl-N4-(4-cyclopropylsulfonylaminomethyl)phenyl-5-methyl-2,4-pyrimidinediamine], the IC50 in test [1] came to 708 nM; in test [2] it was 57.8 nM.
For `Cc1cnc(Nc2ccc(C#N)cc2)nc1Nc1ccc(CNS(=O)(=O)C2CC2)cc1` [II-33, N2-(4-cyano)phenyl-N4-(4-cyclopropylsulfonylaminomethyl)phenyl-5-methyl-2,4-pyrimidinediamine], the IC50 in test [1] came out at 698 nM; in test [2], 20.3 nM.
Consider `O=S(=O)(NCc1ccc(Nc2nc(Nc3ccc4ccn(CCN5CCOCC5)c4c3)ncc2F)cc1)C1CC1` [III-1, N4-[4-(Cyclopropylsulfonylaminomethyl)phenyl]-5-fluoro-N2-[1-(2-(N-morpholino)ethyl)indol-6-yl]-2,4-pyrimidinediamine], for which the IC50 in test [1] amounted to 2970 nM; in test [2] it was 290 nM.
Regarding `O=S(=O)(NCc1ccc(Nc2nc(NC3CCCC3)ncc2F)cc1)C1CC1` [VIII-2, N2-cyclopentyl-N4-(4-cyclopropylsulfonylaminomethyl)phenyl-5-fluoro-2,4-pyrimidinediamine], the half-inhibitory concentration (IC50) turned out to be 56100 nM in test [1] and 1920 nM in test [2].
In the case of `Cc1cnc(Nc2ccc(C3CCN(C)CC3)cc2)nc1Nc1ccc2c(c1)C(NS(C)(=O)=O)CC2` (racemic) [V-2, (+/−)-5-Methyl-N2-[4-(1-methyl-4-piperidinyl)pheny]-N4-[1-(methylsulfonyl)aminoindan-6-yl]-2,4-pyrimidinediamine], the 50% inhibitory concentration (IC50) in test [1] came out at 807 nM; in test [2] it was 1220 nM.
As to `Cc1cnc(Nc2ccc(C(N)=O)cc2)nc1Nc1ccc(CN(C)S(=O)(=O)C2CC2)cc1` [II-19, N2-(4-aminocarbonyl)phenyl-N4-[4-(N-cyclopropylsulfonyl-N-methyl)aminomethyl]phenyl-5-methyl-2,4-pyrimidinediamine], the results for the IC50 in test [1] and in test [2] were 2210 nM and 106 nM, respectively.
Take `NC(=O)c1ccc(Nc2ncc(Cl)c(Nc3ccc(CNS(=O)(=O)C4CC4)cc3)n2)cc1` [II-37, N2-(4-aminocarbonyl)phenyl-5-chloro-N4-(4-cyclopropylsulfonylaminomethyl)phenyl-2,4-pyrimidinediamine]: the results for the IC50 in test [1] and in test [2] were 875 nM and 18.3 nM, respectively.
`CCN1CCN(c2ccc(Nc3ncc(C)c(Nc4cccc(CNS(=O)(=O)C5CC5)c4)n3)cc2C)CC1` [II-12, N4-(3-cyclopropylsulfonylaminomethyl)phenyl-N2-[4-(4-ethylpiperazino)-3-methyl]phenyl-5-methyl-2,4-pyrimidinediamine]: the values for the IC50 in test [1] and in test [2] were 130 nM and 101 nM, respectively.

The record behind these values is patent publication US8304422B2, “Compositions and methods for inhibition of the JAK pathway” (Rigel Pharmaceuticals, Inc., priority 2007, dated 2012).
